In US20210052561A1, “TARGETING ASPARTATE BETA-HYDROXYLASE SUPPRESSES TUMOR MALIGNANCY AND METASTASIS” (Rhode Island Hospital, priority 2019, published 2021):
Entries after “also recorded” stand apart in the source; their conditions may differ. Where two headings read alike, the source gives them in different places.

Experiments:
HuCCT1 CCA cells [1] = assay: cell invasion assay, matrix-coated Boyden chamber transwell, HuCCT1; assay type: cell-based; details: Homo sapiens, HuCCT-1, 10 μM compound 14c, versus DMSO, read-out: inhibition of cell invasion capacity
Description: (§1) Human cholangiocarcinoma cell lines, HuCCT1, RBE, and SSP25 were purchased from the RIKEN cell line bank. They were cultured in RPMI-1640 medium supplemented with 10% (v/v) fetal bovine serum, 2 mM of L-glutamine, and penicillin/streptomycin. A BDE-Neu cell line and BDE-Neu CL24 were cultured in Dulbecco's modified Eagle's medium supplemented with 10% (v/v) fetal bovine serum, 2 mM of L-glutamine, and penicillin/streptomycin. Plasmids pLKO.1-shRNA-luciferase (shLuc) and pLKO.1-shRNA-ASPH (shASPH) were purchased from Sigma-Aldrich (St. Louis, Mo.).
(§2) The cell migration assay was performed using transwell chambers (pore size: 8 μm, Corning 3422) coated with Matrigel® (Corning 354480). The cell invasion assay was performed by using transwell chambers coated with Matrigel® (Corning 354480) as previously described. In brief, 10^5 cells in 200 μl of serum-free medium were plated in the top chamber and 600 μl of culture medium containing 10% fetal bovine serum was preparedapplied in the lower chamber to stimulate cell for migration. Cells were incubated for 24 hours, fixed with methanol, stained with 10% Giemsa solution, and counted using ImageJ software (National Institute of Health, USA). The results of invasion assay were analyzed as described in the migration assay.

[2] = body weights of experimental rats as gross indicator of drug toxicity; assay type: in vivo; details: rat, compound 14c 10 mg/kg, measured at the indicated experimental time points, n=8-10
Description: There was no difference between the control and experimental groups.
The intrahepatic CCA metastatic models weremetastasis model was established with BDE-Neu-CL24 cells. Rats were anesthetized with isoflurane, the abdomen was opened, and the liver inoculated with 3×10^6 BDE-Neu-CL24 cells. The bile duct was then ligated following administration of 0.03 mg/kg of buprenorphine prior to surgery, and four hours after surgery, and the following morning for analgesia as needed. The rats were monitored daily and evaluated for weight change, body condition, and signs of ascites. The oral formulated compound 14c were prepared in capsules at a dose of 10 mg/kg and administered with an oral syringe. […] All lung tissues were immersed in Bouin's fixative solution and the metastatic nodules on the surface of the lungs were counted.
(§3) To evaluate whether compound 14c suppresses CCA metastasis in vivo, we performed experiments in a rat intrahepatic syngeneic CCA model by ligating the bile duct and inoculating rat BDE-neu-CL24 cells into the liver. We first determined that compound 14c inhibited BDE-neu-CL24 cells in vitro (FIG. 4A). […] The body weights were measured as a gross indicator of drug toxicity and were not affected compared to vehicle control (FIG. 7). The metastatic spread to the lung surface was determined (FIG. 4D).

HuCCT1 CCA cells [3] = assay: 24-hour transwell cell migration assay, HuCCT1; assay type: cell-based, human; details: 10 μM compound 14c, versus DMSO
Description: (§4) We used 5×10^4 HuCCT1 and 1×10^5 RBE cells in the migration assay.
as §1, §2

RBE CCA cells [4] = assay: 24-hour transwell cell migration assay, RBE; assay type: cell-based, human
Description: as §4, §1, §2

RBE CCA cells [5] = assay: cell invasion assay, matrix-coated Boyden chamber transwell, RBE; assay type: cell-based; details: Homo sapiens, 10 μM compound 14c, versus DMSO, read-out: inhibition of cell invasion capacity
Description: as §1, §2

ASPH = target: T1, ASPH (Homo sapiens, UniProt Q12797); assay: ASPH enzymatic (catalytic) activity; assay type: biochemical
T1 sequence (Q12797 1-758): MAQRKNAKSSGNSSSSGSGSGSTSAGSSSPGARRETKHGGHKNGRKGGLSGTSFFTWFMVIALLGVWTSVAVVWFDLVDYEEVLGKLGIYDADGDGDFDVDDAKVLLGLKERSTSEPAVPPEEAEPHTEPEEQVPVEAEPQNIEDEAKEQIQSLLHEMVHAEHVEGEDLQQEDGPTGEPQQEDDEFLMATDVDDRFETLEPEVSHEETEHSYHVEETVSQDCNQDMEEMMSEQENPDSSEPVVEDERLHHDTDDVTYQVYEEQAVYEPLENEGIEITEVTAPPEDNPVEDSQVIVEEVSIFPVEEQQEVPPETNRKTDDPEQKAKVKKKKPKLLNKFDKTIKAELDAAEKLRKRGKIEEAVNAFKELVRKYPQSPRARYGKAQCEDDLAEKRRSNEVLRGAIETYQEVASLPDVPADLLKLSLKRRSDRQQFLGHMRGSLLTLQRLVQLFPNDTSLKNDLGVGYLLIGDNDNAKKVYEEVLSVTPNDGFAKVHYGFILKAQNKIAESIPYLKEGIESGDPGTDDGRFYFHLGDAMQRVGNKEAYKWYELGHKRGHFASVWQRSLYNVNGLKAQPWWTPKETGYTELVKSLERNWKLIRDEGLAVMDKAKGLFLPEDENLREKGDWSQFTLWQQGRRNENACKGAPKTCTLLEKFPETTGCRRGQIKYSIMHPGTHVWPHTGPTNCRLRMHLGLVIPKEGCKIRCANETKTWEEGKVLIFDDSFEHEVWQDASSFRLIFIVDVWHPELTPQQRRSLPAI
Text: FIGS. 5A-5B show a scheme for measuring ASPH catalytic activity.

MMP14 = assay: immunohistochemistry of primary intrahepatic tumor, MMP14; assay type: in vivo; details: rat, 10 mg/kg oral daily
Description: (§5) The immunohistochemistry assay was performed as known in the art. Tissue slides were de-paraffined, re-hydrated, and then subjected to antigen-retrieval using the antigen unmasking solution (Vector Inc., H3300). The endogenous peroxidase activity was quenched with 3% H2O2 prepared in methanol. Tissues slides were further blocked with a 5% milk and BSA solution prepared in 1×PBST for 1 hour. The slides were incubated with ASPH, MMP2, and MMP14 antibodies prepared in with 3% BSA in PBS) overnight at 4° C. overnight. The slides were washed with 0.05% TBST three times and then incubated with 1:200 dilution of biotinylated secondary antibody (Vector Laboratories) and the ABC solution (Vector Laboratories) at 20° C. The slides were incubated with DAB substrate to detect positive staining. […] Images were taken using a Nikon microscope and analyzed with Image Pro Plus.
as §3

[6] = system: intrahepatic CCA tumors from BDE-Neu-CL24 cells; assay: rat intrahepatic syngeneic CCA metastasis model; assay type: in vivo; details: for CCA metastatic spread to the lung (metastatic nodules): rat, 10 mg/kg oral capsule daily for 18 days, versus control capsule, p=0.041, 10 mg/kg
Description: Rats received 10 mg/kg (body weight) of the ASPH inhibitor daily for 18 days and sacrificed at day 21 post-surgery
The statistical analysis was performed using the Mann-Whitney U test. *, p<0.05 versus control.
The compound 55 (25 mg/kg) was given by i.p injection, and 10 mg/kg of compound 14c via i.p. injection 3 times per week. N=8-10 in each group.
The intrahepatic CCA metastatic models weremetastasis model was established with BDE-Neu-CL24 cells. Rats were anesthetized with isoflurane, the abdomen was opened, and the liver inoculated with 3×10^6 BDE-Neu-CL24 cells. The bile duct was then ligated following administration of 0.03 mg/kg of buprenorphine prior to surgery, and four hours after surgery, and the following morning for analgesia as needed. The rats were monitored daily and evaluated for weight change, body condition, and signs of ascites. The oral formulated compound 14c were prepared in capsules at a dose of 10 mg/kg and administered with an oral syringe. The rats were euthanized […] with Isoflurane and cervical dislocation. Tumors were dissected away from the adjacent liver and weighed. All lung tissues were immersed in Bouin's fixative solution and the metastatic nodules on the surface of the lungs were counted.
Statistical analyses of two groups were done by Student's t-test unless otherwise stated. Equality of variance was examined using F-test. Mann-Whitney U test was used to assess the significance between the two groups with respect to the numbers of metastatic nodules in the rat lung by using the software “R”.
To evaluate whether compound 14c suppresses CCA metastasis in vivo, we performed experiments in a rat intrahepatic syngeneic CCA model by ligating the bile duct and inoculating rat BDE-neu-CL24 cells into the liver. We first determined that compound 14c inhibited BDE-neu-CL24 cells in vitro (FIG. 4A). The intrahepatic rat model was established and the rats challenged with a control capsule or a capsule containing compound 14c (10 mg/kg, FIG. 4B) orally and daily for 18 days, and animals were sacrificed on day 21 (FIG. 4C). The body weights were measured as a gross indicator of drug toxicity and were not affected compared to vehicle control (FIG. 7). The metastatic spread to the lung surface was determined (FIG. 4D).

water solubility = assay type: physicochemical
BDE-neu-CL24 cells = assay: cell migration assay, rat BDE-neu CL24 CCA cells; assay type: cell-based; details: 10 μM, versus DMSO
Description: as §1, §2

MMP2 = assay: immunohistochemistry of primary intrahepatic tumor, MMP2; assay type: in vivo; details: rat, 10 mg/kg oral daily
Description: as §5, §3

[7] = listed as third generation ASPH inhibitor

Structure (SMILES): COC(=O)c1ccc(C2OC(N)=C(OS(=O)(=O)Cc3ccccc3)C2=O)cc1 (stereo not drawn) [compound 14c]
- inhibition at 10 µM (HuCCT1 CCA cells [1]): 60%
- body weights compared to vehicle control [2]: not affected; also recorded: no difference
- reduction of cell migration (HuCCT1 CCA cells [3]): 50%
- reduction of cell migration (RBE CCA cells [4]; 10 μM compound 14c, 24-hour transwell, versus DMSO): 70%
- reduction of RBE CCA cell migration (RBE CCA cells [4]; comparison of ASPH inhibitor generations, concentration not stated): approximately 70%
- inhibition at 10 µM (RBE CCA cells [5]): 83%
- inhibitory effects on ASPH (enzymatic) activity compared to previous generations of ASPH SMIs (ASPH): improved
- inhibitory effects on ASPH (enzymatic) activity compared to previous generations of ASPH SMIs (ASPH; [7]): increased potency
- MMP14 protein expression in primary intrahepatic tumor (MMP14): significantly down-regulated
- effects on CCA progression as compared to compound 55 (FIG. 6A, weight of CCA tumors) ([6]; rat CCA model, compound 14c 10 mg/kg i.p. 3 times per week versus compound 55 25 mg/kg i.p.): improved effects
- CCA metastatic spread to the lung (metastatic nodules) [6]: substantially decreased
- CCA metastatic spread to the lung (metastatic nodules) [6, 7]: suppressed
- water solubility compared to previous generations of ASPH SMIs (water solubility): improved water solubility
- water solubility compared to previous generations of ASPH SMIs (water solubility; [7]): more water soluble
- inhibition of BDE-neu-CL24 cells in vitro (cell migration, FIG. 4A) (BDE-neu-CL24 cells): inhibited
- MMP2 protein expression in primary intrahepatic tumor (MMP2): significantly down-regulated

Structure (SMILES): NC1=C(OS(=O)(=O)Cc2ccccc2)C(=O)C(c2ccc(C(F)(F)F)cc2)O1 (stereo not drawn) [compound 55, 2-(4-trifluoromethylphenyl)-4-[[phenylmethylsulfonyl]oxy]-5-amino-3(2H)-furanone]
- anti-tumor effects on metastatic spread to the lung ([6]; rat model, 25 mg/kg, daily): did not achieve satisfactory anti-tumor effects
- anti-tumor effects on primary tumor growth ([6]; rat model, 25 mg/kg, daily): did not achieve satisfactory anti-tumor effects
